Results on four compounds are retold here after patent US10208077B1, “Aesculin lipoic acid ester with antioxidant activity and a method of preparing the same” (SHAANXI UNIVERSITY OF SCIENCE AND TECHNOLOGY, priority 2018, dated 2019).

Molecules are shown by their SMILES.

This experiment is described as follows: DPPH radical scavenging activity assay. The format is biochemical. As to conditions: for Scavenging activity (%): 0.2 mmol/L DPPH, 30 min, room temperature, dark, absorbance at 517 nm. An excerpt:
The Antioxidant Activity of the Aesculin Lipoic Acid Ester Measured by a DPPH Radical Scavenging Activity Assay
2,2-Diphenyl-1-picryl hydrazyl (DPPH) is an organic compound composed of a stable organic radical. In the DPPH molecule, due to the presence of multiple electron-withdrawing —NO2 and large π bonds of the benzene ring, nitrogen free radical is stabilized. Its methanol solution is purple and has a maximum absorption peak at 517 nm. After the addition of an antioxidant, DPPH captures an electron to be paired with the free electron, and the purple fades and turns into a yellow substance. The absorption at 517 nm disappears, and the degree of fading is quantitatively related to the number of electrons it captures. Based on this principle, a spectrophotometer is used to detect the change of the absorbance of the DPPH radical and the sample solution, and the ability of the sample to provide hydrogen atoms and scavenge free radicals can be measured.
Preparation of DPPH solution: measuring exact amount of 2,2-diphenyl-1-picryl hydrazyl (DPPH) and dissolving in methanol to prepare a 0.2 mmol/L DPPH solution, stored at 0° C. in dark.
Preparation of sample solutions: the aesculin lipoic acid ester was diluted with a concentration gradient of 1.82, 7.28, 24.2, 48.4, 72.6, 96.8, 242, 484, 726, 968 ppm with acetonitrile to prepare sample solutions to be tested. Control samples (vitamin C, aesculin, lipoic acid, a mixture of aesculin and lipoic acid) were diluted with methanol in the same manner in the same concentration gradient to obtain the corresponding four groups of control solutions.
Measuring the Scavenging Activity of the Sample Solutions:
2 mL of the sample solutions at each concentration gradient was taken, 2 mL 0.2 mmol/L DPPH solution was added, the mixture was mixed and reacted at room temperature in dark for 30 minutes, and methanol was then added to adjust final volume. The absorbance Ai was measured at 517 nm. 2 mL control solution and 2 mL methanol were mixed, and the absorbance Aj was measured. 2 mL DPPH solution and 2 mL methanol were mixed, and the absorbance A0 was measured. The scavenging activity of the sample solution and control solutions is calculated according to the following calculation formula. Scavenging activity (%)=100×[1−(Ai−Aj)/A0]

In the case of `O=C(O)CCCC[C@@H]1CCSS1` (racemic) [Lipoic acid], the “Scavenging activity (%)” value is, setting by setting: (1.82 ppm) 0.86%; (7.28 ppm) 1.14%; (24.2 ppm) 1.43%; (48.4 ppm) 1.62%; (72.6 ppm) 2.47%; (96.8 ppm) 3.81%. Besides, the “Scavenging activity (%)” value runs as follows: (242 ppm) 8.47%; (484 ppm) 16.65%; (726 ppm) 20.17%; (968 ppm) 21.88%.

On to `O=C(CCCC[C@@H]1CCSS1)OCC1OC(Oc2cc3ccc(=O)oc3cc2O)C(O)C(O)C1O` (some centres unmarked) [Aesculin lipoic acid ester, aesculin lipoic acid ester], for which the “Scavenging activity (%)” value is 30.93% (1.82 ppm); 42.73% (7.28 ppm); 57.70% (24.2 ppm); 72.90% (48.4 ppm); 83.5% (72.6 ppm); 89.73% (96.8 ppm). Further, the “Scavenging activity (%)” value is given as 95.30% (242 ppm), 96.50% (484 ppm), 96.83% (726 ppm) and 96.94% (968 ppm). Moreover, the “free radical clearance rate” value (achieved at a lower concentration than aesculin, lipoic acid and their mixture) is “more than 90%”.

On to `O=c1ccc2cc(O[C@@H]3O[C@H](CO)[C@@H](O)[C@H](O)[C@H]3O)c(O)cc2o1` [Aesculin], for which the “Scavenging activity (%)” value (1.82 ppm) came to 3.44%; the “Scavenging activity (%)” value (7.28 ppm) is given as 3.53%; the “Scavenging activity (%)” value (24.2 ppm) is given as 5.12%; the “Scavenging activity (%)” value (48.4 ppm) is reported as 5.56%; the “Scavenging activity (%)” value (72.6 ppm) is on record as 8.12%; the “Scavenging activity (%)” value (96.8 ppm) stood at 10.77%. In addition, the “Scavenging activity (%)” value (242 ppm) came to 24.01%, the “Scavenging activity (%)” value (484 ppm) was 42.54%, the “Scavenging activity (%)” value (726 ppm) turned out to be 58.34% and the “Scavenging activity (%)” value (968 ppm) came out at 70.70%.

Take `O=C1O[C@H]([C@@H](O)CO)C(O)=C1O` [Vitamin C, vitamin C]: the “Scavenging activity (%)” value runs as follows: (1.82 ppm) 23.86%; (7.28 ppm) 72.45%; (24.2 ppm) 96.70%; (48.4 ppm) 96.99%; (72.6 ppm) 97.58%; (96.8 ppm) 97.77%. Moreover, the “Scavenging activity (%)” value (242 ppm) was 97.77%, the “Scavenging activity (%)” value (484 ppm) was 98.06%, the “Scavenging activity (%)” value (726 ppm) worked out at 98.06% and the “Scavenging activity (%)” value (968 ppm) came to 98.06%.
